# System: human renal proximal tubule epithelial cells (RPTEC)
# Assay: Cytotoxicity Assay, RPTEC Cells
# Assay type: cell-based
# Experimental: Cells were plated at 3,000 cells/well (RPTEC) in 96-well plates and were incubated overnight at 37° C. The compounds were added to the wells, and the cells were incubated for 4 days. Alomar Blue was added to one set of plates and incubated for 4 hours. The plates were read when the compound was added (time zero) and at the end of the study. Fluorescence was read using 530 nm (excitation) and 590 nm (emission) according to the manufacturer's instructions.
row,Substance,Cytotoxicity (Kidney Epithelial IC50) [µg/mL]
1,"Poly(1,3-bis N-(1,4-dimethybenzene)piperidin-4-yl)propane)",1.5
2,"Poly(1,3-bis(1,5-dimethybenzene)piperidin-4-yl)propane)",1.5
3,"Poly(1,3-bis(1-pentyl-piperidin-4-yl)propane [4,4′-Trimethylenedipiperidine/Glutaraldehyde (1:1.5) <10K]",4
4,"Poly(1,3-bis(1-pentyl-piperidin-4-yl)propane [4,4′-Trimethylenedipiperidine/Glutaraldehyde (1:1.5) >10K]",5
5,"Poly(1,3-bis(1-pentyl-piperidin-4-yl)propane [4,4′-Trimethylenedipiperidine/Glutaraldehyde (1:2.5) <10K]",2
6,"Poly(1,3-bis(1-pentyl-piperidin-4-yl)propane [4,4′-Trimethylenedipiperidine/Glutaraldehyde (1:3.5) <10K]",2
7,"Poly(1,3-bis(1-pentyl-piperidin-4-yl)propane [4,4′-Trimethylenedipiperidine/Glutaraldehyde <10K]",331
8,"Poly(1,3-bis(1-pentyl-piperidin-4-yl)propane [4,4′-Trimethylenedipiperidine/Glutaraldehyde >10K]",1.5
9,"Poly(1,3-bis(1-pentyl-piperidin-4-yl)propane [Poly(4,4′-Trimethylenedipiperidine/Glutaraldehyde (1:1)), <1]",2
10,"Poly(1,3-bis(1-pentyl-piperidin-4-yl)propane [Poly(4,4′-Trimethylenedipiperidine/Glutaraldehyde (1:1)), >1]",2
11,"Poly((1,1′-dipentyl)-4,4-dipiperidine) [4,4′-dipiperidine/Glutaraldehyde <10K]",1.5
12,"Poly((1,1′-dipentyl)-4,4-dipiperidine) [Poly(1:1 Dipiperidine:Glutaraldehyde); <10K molecular weight]",2
